Laboratory results: US20230181564A1, “Potent Tetrahydroquinolone Eliminates Apicomplexan Parasites” (The University of Chicago, priority 2020, published 2023)

Assays:
[1] = system: T. gondii RH-YFP tachyzoites; test: In vitro challenge assay, RH strain YFP tachyzoites in HFF; format: cell-based, Toxoplasma gondii; conditions: requires hepatic metabolism
Description: PBS Sol/Toxicity pH7.4 refers to solubility of the compound in Phosphate Buffered Saline (PBS) at pH7.4. […] Tachy/Brady IC50 was determined in studies in which cultures of parasites in HFF were treated with varying concentrations of the compound and there was 50% inhibition of the replication (number) of parasites. Parasites were RH-YFP expressing tachyzoites (Tachy) and EGS (Brady) strains. Studies of effects of inhibitors on HFF or on T.gondii tachyzoites were performed with triplicate wells in at least two biological replicate experiments. Studies of effects on bradyzoites were performed at least twice in at least two biological replicate experiments. Compounds with much less inhibition of mammalian than T. gondii cytochrome bc in the saffarine enzyme assay (indicated by **) provide potential to further develop compounds, if unanticipated toxicity occurs from JAG21.
RH strain YFP Tachyzoites. Protocol was adapted from Fomovska et al. (2012; 2012a) for HFF. […] RH-YFP, lysed from host cells by passing twice through a 27-gauge needle, were counted, then diluted to 32,000/mL in IMDM-C. […] Plates were read using a fluorimeter (Synergy H4 Hybrid Reader, BioTek) to ascertain amount of relative fluorescence units (RFU) YFP, to measure parasite burden after treatment. Data were collected using Gen5 software with IC50 calculated by graphical analysis in Excel. […]

P. berghei sporozoites = conditions: doses between 1 and 20 mg/kg; not the prodrug; cited from earlier work

| SMILES | Activity in tissue culture [1] | Efficacy in the P. berghei in vivo model (P. berghei sporozoites) |
| --- | --- | --- |
| COc1cc(C)c2c(Oc3cccc(C(F)(F)F)c3)c(OC)cc(NC(C)CCCN)c2n1 (centres unmarked) [Tafenoquine] | not active |  |
| COc1cc2[nH]c(C)c(-c3ccc(Oc4ccc(OC(F)(F)F)cc4)cc3)c(=O)c2cc1Cl [ELQ 300] |  | not effective |
